Data taken from patent US20110178053A1, “AZACARBOLINE DERIVATIVES, PREPARATION METHOD THEREOF AND THERAPEUTIC USE OF SAME” (SANOFI-AVENTIS, priority 2008, published 2011).

Tests used:
Type in all cases: biochemical
Pim-2 = molecular target: T1, Pim-2 (Homo sapiens, UniProt Q9P1W9); assay: TR-FRET assay, Pim-2 kinase (phosphorylation of Bad Ser112); settings: TR-FRET; ATP 40 μM; read-out: IC50 Pim2
T1 construct: His6-labelled recombinant full-length human Pim-1, Pim-2 or Pim-3 protein; His6; made in house
Method: (§1) In order to determine the inhibition of activation of Pim kinases, the compounds of the invention are tested in accordance with a routinely used in vitro TR-FRET assay (Time-Resolved Fluorescence Resonance Energy Transfer). […] For the assay, the following reagents are used:
(§2) Pim kinase—His6-labelled recombinant full-length human Pim-1, Pim-2 or Pim-3 protein (prepared according to J. Mol. Biol. (2005) 348, 183-193); Bad—His6-labelled recombinant full-length human Bad protein (prepared according to J. Mol. Biol. (2005) 348, 183-193); α-His6-APC—murine monoclonal antibody conjugated to allophycocyanin SureLight™ directed against the His6 label (Perkin-Elmer, No. AD0059H, Waltham, Mass., United States); • β-P˜Bad-Eu—murine monoclonal antibody (Cell Signaling Technology #9296B, Danvers, Mass., United States) directed against phosphoBad (Ser112) (7E11) custom-labelled by Perkin-Elmer with the reagent LANCE™ Eu-W1024.
(§3) The assay is based on Perkin-Elmer's LANCE™ technology: the Eu-labelled antibody binds to phospho-Ser112 and generates a TR-FRET signal by interaction with the APC-labelled antibody directed against His6, bound to the His6 label of Bad. The TR-FRET signal is detected using a SpectraMax M5 plate reader (Molecular Devices) with the following settings: λex=340 nm, λem1=615 nm, λem2=665 nm. The ratio of the fluorescence signal at 665 nm to the fluorescence signal at 615 nm is used as the signal reading for the IC50 (calculation is based on the 4-parameter logistic model). The assay is performed in a 384-well format; the liquid manipulations are performed using a Beckman 3000 liquid manipulations station. The test compounds are tested at 10 concentration points in duplicate; the highest compound concentration is typically equal to 30 μM. The ATP concentration is equal to 40 μM, which is equivalent to the apparent KM value.

Pim-3 = molecular target: T2, Pim-3 (Homo sapiens, UniProt Q86V86); assay: TR-FRET assay, Pim-3 kinase (phosphorylation of Bad Ser112); settings: TR-FRET; ATP 40 μM; read-out: IC50 Pim3
T2 construct: His6-labelled recombinant full-length human Pim-1, Pim-2 or Pim-3 protein; His6; made in house
Method: as §1, §2, §3

Pim-1 = molecular target: T3, Pim-1 (Homo sapiens, UniProt P11309); assay: TR-FRET assay, Pim-1 kinase (phosphorylation of Bad Ser112); settings: TR-FRET; ATP 40 μM; read-out: IC50 Pim1
T3 construct: His6-labelled recombinant full-length human Pim-1, Pim-2 or Pim-3 protein; His6; made in house
Method: as §1, §2, §3

T1 sequence (Q9P1W9 whole entry): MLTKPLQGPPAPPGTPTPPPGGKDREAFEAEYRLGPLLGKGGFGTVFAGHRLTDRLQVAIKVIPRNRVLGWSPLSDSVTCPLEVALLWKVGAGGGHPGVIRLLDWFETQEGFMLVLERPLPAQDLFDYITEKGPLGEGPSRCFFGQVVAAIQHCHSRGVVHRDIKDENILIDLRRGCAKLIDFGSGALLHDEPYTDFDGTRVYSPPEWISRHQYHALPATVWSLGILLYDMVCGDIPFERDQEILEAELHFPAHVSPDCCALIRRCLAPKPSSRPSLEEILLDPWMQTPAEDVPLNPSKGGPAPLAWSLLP
T3 sequence (P11309 whole entry): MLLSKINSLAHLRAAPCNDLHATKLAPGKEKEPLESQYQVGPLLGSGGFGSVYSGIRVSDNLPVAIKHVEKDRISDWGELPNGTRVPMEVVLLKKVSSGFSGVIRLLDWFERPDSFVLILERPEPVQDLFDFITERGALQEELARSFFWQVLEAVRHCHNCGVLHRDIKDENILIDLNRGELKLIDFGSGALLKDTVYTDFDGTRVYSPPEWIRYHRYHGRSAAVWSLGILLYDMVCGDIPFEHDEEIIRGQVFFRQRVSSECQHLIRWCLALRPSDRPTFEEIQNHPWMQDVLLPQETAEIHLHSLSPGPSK

| SMILES | IC50 (Pim-2) | IC50 (Pim-3) | IC50 (Pim-1) |
| --- | --- | --- | --- |
| Fc1cnc2[nH]c3cnc(-c4cccnc4)cc3c2c1N1CCN(CCCN2CCOCC2)CC1 [Example 87, 3-fluoro-4-{4-[3-(morpholin-4-yl)propyl]piperazin-1-yl}-6-(pyrid-3-yl)-9H-pyrrolo-[2,3-b:5,4-c′]-dipyridine] | 0.1 to 1 µM | 0.001 to 0.1 µM | 0.001 to 0.1 µM |
| CC(=O)NCc1ccc(-c2c(F)cnc3[nH]c4cnc(-c5cccnc5)cc4c23)cc1 [Example 61, N-{4-[3-fluoro-6-(pyrid-3-yl)-9H-pyrrolo[2,3-b:5,4-c′]-dipyrid-4-y]benzyl}-acetamide] | 1 to 5 µM | 0.001 to 0.1 µM | 0.001 to 0.1 µM |
| CN(C)C1CCN(c2c(F)cnc3[nH]c4cnc(-c5cccnc5)cc4c23)CC1 [Example 84, 1-[3-fluoro-6-(pyrid-3-yl)-9H-pyrrolo[2,3-b:5,4-c′]dipyrid-4-yl]-N,N-dimethylpiperid-4-amine] | 1 to 5 µM | 0.1 to 1 µM | 0.1 to 1 µM |
| Fc1cnc2[nH]c3cnc(-c4cccnc4)cc3c2c1/C=C/c1ccccc1 [Example 24, 3-fluoro-4-[(E)-2-phenylethenyl]-6-(pyrid-3-yl)-9H-pyrrolo[2,3-b:5,4-c′]dipyridine] | > 5 µM | 1 to 5 µM | 0.1 to 1 µM |
| Nc1cnc2[nH]c3cnc(-c4cccnc4)cc3c2c1 [Example 109, 6-(pyrid-3-yl)-9H-pyrrolo[2,3-b:5,4-c′]dipyrid-3-amine] | > 5 µM | 0.1 to 1 µM | 0.001 to 0.1 µM |
| COc1ncc(-c2c(F)cnc3[nH]c4cnc(-c5cccnc5)cc4c23)cn1 [Example 73, 3-fluoro-4-(2-methoxypyrimidin-5-yl)-6-(pyrid-3-yl)-9H-pyrrolo[2;3-b:5,4-c′]dipyridine] | > 5 µM | 1 to 5 µM | 0.1 to 1 µM |
| CC(C)N1CCN(c2c(F)cnc3[nH]c4cnc(-c5cccnc5)cc4c23)CC1 [Example 75, 3-fluoro-4-[4-(propan-2-yl)-piperazin-1-yl]-6-(pyrid-3-yl)-9H-pyrrolo[2,3-b:5,4-c′]dipyridine] | 1 to 5 µM | 0.1 to 1 µM | 0.001 to 0.1 µM |
| CC(C)(N)C#Cc1c(F)cnc2[nH]c3cnc(-c4cccnc4)cc3c12 [Example 90, 4-[3-fluoro-6-(pyrid-3-yl)-9H-pyrrolo[2,3-b:5,4-c′]dipyrid-4-yl]-2-methylbut-3-yn-2-amine] | > 5 µM | 0.1 to 1 µM | 0.1 to 1 µM |
| CN1CCCN(c2c(F)cnc3[nH]c4cnc(-c5cccnc5)cc4c23)CC1 [Example 80, 3-fluoro-4-(4-methyl-1,4-diazepan-1-yl)-6-(pyrid-3-yl)-9H-pyrrolo[2,3-b:5,4-c′]dipyridine] | > 5 µM | 0.1 to 1 µM | 0.1 to 1 µM |
| CN(C)CC(=O)N1CCN(c2cccc(-c3cnc4[nH]c5cnc(-c6cccnc6)cc5c4c3)c2)CC1 [Example 134, 2-(dimethylamino)-1-(4-{3-[6-(pyrid-3-yl)-9H-pyrrolo[2,3-b:5,4-c′]dipyrid-3-yl]-phenyl}piperazin-1-yl)ethanone] | > 5 µM | 0.001 to 0.1 µM | 0.001 to 0.1 µM |
| C=CCn1cc(-c2cc3c(cn2)[nH]c2nccc(-c4ccc(C(=O)OC)cc4)c23)cn1 [Example 170, methyl 4-{6-[1-(prop-2-en-1-yl)-1H-pyrazol-4-yl]-9H-pyrrolo[2,3-b:5,4-c′]dipyrid-4-yl}benzoate] | 0.1 to 1 µM | 0.1 to 1 µM | 0.001 to 0.1 µM |
| Ic1cnc2[nH]c3cnc(-c4cccnc4)cc3c2c1 [Example 114, 3-iodo-6-(pyrid-3-yl)-9H-pyrrolo[2,3-b:5,4-c′]dipyridine] | 1 to 5 µM | 0.1 to 1 µM | 0.1 to 1 µM |

Other lines, results leading:

| IC50 (Pim-2) | IC50 (Pim-3) | IC50 (Pim-1) | SMILES |
| --- | --- | --- | --- |
| 1 to 5 µM | 0.1 to 1 µM | 0.001 to 0.1 µM | FC(F)(F)COc1cnc2[nH]c3cnc(-c4cccnc4)cc3c2c1 [Example 111, 6-(pyrid-3-yl)-3-(2,2,2-trifluoroethoxy)-9H-pyrrolo[2,3-b:5,4-c′]dipyridine] |
| > 5 µM | 0.1 to 1 µM | 0.001 to 0.1 µM | Fc1cc(F)cc(-c2c(F)cnc3[nH]c4cnc(-c5cccnc5)cc4c23)c1 [Example 25, 4-(3,5-difluorophenyl)-3-fluoro-6-(pyrid-3-yl)-9H-pyrrolo [2,3-b:5,4-c′]-dipyridine] |
| > 5 µM | 1 to 5 µM | 0.1 to 1 µM | Fc1cnc2[nH]c3cnc(-c4cccnc4)cc3c2c1-c1cccc(N2CCOCC2)c1 [Example 31, 3-fluoro-4-[3-(morpholin-4-yl)phenyl]-6-(pyrid-3-yl)-9H-pyrrolo [2,3-b:5,4-c′]dipyridine] |
| 1 to 5 µM | 0.1 to 1 µM | 0.001 to 0.1 µM | CC(C)C(=O)Nc1ccc(-c2c(F)cnc3[nH]c4cnc(-c5cccnc5)cc4c23)cc1 [Example 68, N-{4-[3-fluoro-6-(pyrid-3-yl)-9H-pyrrolo[2,3-b:5,4-c']-dipyrid-4-yl]phenyl}-2-methylpropanamide] |
| > 5 µM | 0.1 to 1 µM | 0.1 to 1 µM | OCc1cnc2[nH]c3cnc(-c4cccnc4)cc3c2c1 [Example 17, [6-(pyrid-3-yl)-9H-pyrrolo[2,3-b:5,4-c′]dipyrid-3-yl]methanol] |
| > 5 µM | 1 to 5 µM | 0.1 to 1 µM | O=C(O)CCC(=O)Nc1cccc(-c2c(F)cnc3[nH]c4cnc(-c5cccnc5)cc4c23)c1 [Example 65, acide 4-({3-[3-fluoro-6-(pyrid-3-yl)-9H-pyrrolo[2,3-b:5,4-c′]-dipyrid-4-yl]-phenyl}amino)-4-oxobutanoic acid] |
| 1 to 5 µM | 0.1 to 1 µM | 0.001 to 0.1 µM | Cn1cc(-c2c(F)cnc3[nH]c4cnc(-c5cccnc5)cc4c23)cn1 [Example 60, 3-fluoro-4-(1-methyl-1H-pyrazol-4-yl)-6-(pyrid-3-yl)-9H-pyrrolo[2,3-b:5,4-c′]-dipyridine] |
| > 5 µM | 1 to 5 µM | 1 to 5 µM | COc1cncc(-c2cc3c(cn2)[nH]c2ncc(F)cc23)c1 [Example 159, 3-fluoro-6-(5-methoxypyrid-3-yl)-9H-pyrrolo[2,3-b:5,4-c′]dipyridine] |
| > 5 µM | 0.001 to 0.1 µM | 0.001 to 0.1 µM | c1cncc(-c2cc3c(cn2)[nH]c2ncc(-c4cccc(N5CCN(C6CC6)CC5)c4)cc23)c1 [Example 142, 3-[3-(4-cyclopropylpiperazin-1-yl)phenyl]-6-(pyrid-3-yl)-9H-pyrrolo[2,3-b:5,4-c′]-dipyridine] |
| > 5 µM | 0.1 to 1 µM | 0.001 to 0.1 µM | Cc1csc(-c2c(F)cnc3[nH]c4cnc(-c5cccnc5)cc4c23)c1 [Example 54, 3-fluoro-4-(4-methylthiophen-2-yl)-6-(pyrid-3-yl)-9H-pyrrolo[2,3-b:5,4-c′]dipyridine] |
| > 5 µM | 0.1 to 1 µM | 0.1 to 1 µM | COc1cnc2[nH]c3cnc(-c4cnn(CCCCCN)c4)cc3c2c1 [Example 168, 5-[4-(3-methoxy-9H-pyrrolo[2,3-b:5,4-c′]dipyrid-6-yl)-1H-pyrazol-1-yl]pentan-1-amine] |
| > 5 µM | 0.001 to 0.1 µM | 0.001 to 0.1 µM | CC(=O)N1CCN(c2cccc(-c3cnc4[nH]c5cnc(-c6cccnc6)cc5c4c3)c2)CC1 [Example 136, 1-(4-{3-[6-(pyrid-3-yl)-9H-pyrrolo[2,3-b:5,4-c′]dipyrid-3-yl]phenyl}piperazin-1-yl)-ethanone] |
| > 5 µM | > 5 µM | 1 to 5 µM | Fc1ccc(-c2cc3c(cn2)[nH]c2ncccc23)cn1 [Example 41, 6-(6-fluoropyrid-3-yl)-9H-pyrrolo[2,3-b:5,4-c′]dipyridine] |
| 0.1 to 1 µM | 0.001 to 0.1 µM | 0.001 to 0.1 µM | CS(=O)(=O)N1CCN(CCCOc2ccc(-c3cnc4[nH]c5cnc(-c6cccnc6)cc5c4c3)cc2)CC1 [Example 152, 3-(4-{3-[4-(methylsulfonyl)piperazin-1-yl]propoxy}phenyl)-6-(pyrid-3-yl)-9H-pyrrolo-[2,3-b:5,4-c′]dipyridine] |
| 0.1 to 1 µM | 0.001 to 0.1 µM | 0.001 to 0.1 µM | CN(C)CCCOc1ccc(-c2cnc3[nH]c4cnc(-c5cccnc5)cc4c3c2)cn1 [Example 145, N,N-dimethyl-3-({5-[6-(pyrid-3-yl)-9H-pyrrolo[2,3-b:5,4-c′]dipyrid-3-yl]pyrid-2-yl}-oxy)propan-1-amine] |
| > 5 µM | 0.1 to 1 µM | 0.1 to 1 µM | COc1cnc2[nH]c3cnc(-c4cnn(CCC5CCCCN5C)c4)cc3c2c1 (stereo not drawn) [Example 169, 3-methoxy-6-{1-[2-(1-methylpiperid-2-yl)ethyl]-1H-pyrazol-4-yl}-9H-pyrrolo[2,3-b:5,4-c′]dipyridine] |
